Measured values from patent US4322540A, “Substituted 4,5,6,7-tetrahydro-1H (or 2H)-indazoles” (Eli Lilly and Company, priority 1981, dated 1982).
Where a name gives a salt, the structure may show the parent alone.

Experiments:
[1] = system: nigro-neostriatal-lesioned rats; test: Turning behavior in 6-hydroxy-dopamine-lesioned rats (dopamine agonist activity); format: in vivo, rat; conditions: intraperitoneal; for Percent of rats exhibiting turning behavior: 15-minute period after latency; for Number of turns (average): counted over 15-minute period
Procedure: In this test, nigro-neostriatal-lesioned rats, prepared by the procedure of Ungerstedt and Arbuthnott, Brain Res, 24, 485 (1970) are employed. A compound having dopamine agonist activity, upon injection, causes the rats to turn in circles contralateral to the side of the lesion. After a latency period, which varies from compound to compound, the number of turns is counted over a 15-minute period. The compounds are dissolved in water and the resulting aqueous solution injected into the rat by the intraperitioneal route at a series of dose levels.

[2] = system: prolactin; test: Inhibition of prolactin secretion in reserpine-treated rats; format: in vivo, adult male rats of the Sprague-Dawley strain; conditions: intraperitoneal, serum one hour after treatment, reserpine-treated male rats
Procedure: The compounds of this invention are also useful as prolactin inhibitors and as such can be employed in the treatment of inappropriate lactation, such as postpartum lactation and galactorrhea.
Adult male rats of the Sprague-Dawley strain weighing about 200 g. were housed in an air-conditioned room with controlled lighting (lights on 6 a.m.-8 p.m.) and fed lab chow and water ad libitum. Each rat received an intraperitioneal injection of 2.0 mg. of reserpine in aqueous suspension 18 hours before administration of the indazole. The purpose of the reserpine was to keep prolactin levels uniformly elevated. The compounds under test were dissolved in water and were injected intraperitioneally at doses ranging from 5 mg/kg down to […]. Each compound was administered at each dose level to a group of 10 rats, and a control group of 10 intact males received an equivalent amount of solvent. One hour after treatment all rats were killed by decapitation, and 150 μl aliquots of serum were assayed for prolactin.
The difference between the prolactin level of the treated rats and prolactin level of the control rats divided by the prolactin level of the control rats gives the percent inhibition of prolactin secretion attributable to the compounds of this invention. In the table, column 1 gives the name of the compound; and columns 2-4 the percent prolactin inhibition at the given dose level.

[3] = system: mouse; test: Acute toxicity (LD50) by the intraperitoneal route in the mouse; format: in vivo
Procedure: In using the compounds of this invention to inhibit prolactin secretion or to treat Parkinson's syndrome or for other pharmacologic action, a compound according to Formulas I and II above, or a salt thereof with a pharmaceutically-acceptable acid, is administered to a subject suffering from Parkinsonism, or in need of having their prolactin level reduced, in an amount effective to alleviate some of the symptoms of Parkinsonism or to reduce an elevated prolactin level. Oral administration is preferred. If parenteral administration is used, the injection is preferably by the subcutaneous route using an appropriate pharmaceutical formulation. […] In particular, with intravenous or intramuscular administration, a water soluble pharmaceutically-acceptable salt is employed. For oral administration, a compound according to Formulas I and II either as the free base or in the form of a salt thereof can also be mixed with standard pharmaceutical excipients and loaded into empty telescoping gelatin capsules or pressed into tablets. The oral dosage should be in the range 0.01-10 mg/kg of mammalian body weight and the parenteral dose in the range 0.0025 to 2.5 mg/kg. The LD50 of dl-5-di(n-propyl)amino-4,5,6,7-tetrahydro-1H(and 2H)-indazole dihydrochloride is between 100 and 300 mg/kg by the intraperitoneal route in the mouse.

Row | SMILES | Percent of rats exhibiting turning behavior ([1]; 1 mg/kg) [%] | Number of turns (average) ([1]; 1 mg/kg) [turns] | Percent Inhibition of Prolactin ([2]; 5 mg/kg) [%] | Percent Inhibition of Prolactin ([2]; 50 mcg/kg) [%] | Percent Inhibition of Prolactin ([2]; 500 mcg/kg) [%] | Percent of rats exhibiting turning behavior ([1]; 100 mcg/kg) [%] | Number of turns (average) ([1]; 100 mcg/kg) [turns] | Lethality ([3]; 10 mg/kg) | Lethality ([3]; 30 mg/kg) | Side effects ([3]; 30 mg/kg) | Percent of rats exhibiting turning behavior ([1]; 250 mcg/kg) [%] | Number of turns (average) ([1]; 250 mcg/kg) [turns]
1 | NC1CCc2[nH]ncc2C1 (racemic) [dl-5-Amino-4,5,6,7-tetrahydro-1H-indazole dihydrochloride and dl-5-amino-4,5,6,7-tetrahydro-2H-indazole dihydrochloride] | 33 | 7 |  |  |  |  |  |  |  |  |  | 
2 | CN(C)C1CCc2[nH]ncc2C1 (racemic) [dl-5-Dimethylamino-4,5,6,7-tetrahydro-1H-indazole dihydrochloride and dl-5-dimethylamino-4,5,6,7-tetrahydro-2H-indazole dihydrochloride] | 33 | 5 | 73 | 31 | 30 |  |  |  |  |  |  | 
3 | CCCN(CCC)C1CCc2n[nH]cc2C1 (racemic) [dl-5-di(n-propyl)amino-4,5,6,7-tetrahydro-1H(and 2H)-indazole dihydrochloride] | 67 | 48 | 94 | 1 | 66 | 33 | 6 | not fatal | not fatal | produces some undesirable side effects |  | 
4 | CCCN(CCC)C1CCc2cn[nH]c2C1 (racemic) [dl-6-di-(n-propyl)amino-4,5,6,7-tetrahydro-1H(and 2H)-indazole dihydrochloride] | 100 | 98 |  | 31 |  | 0 |  |  |  |  | 50 | 30
